Measurements as given in ChEMBL document CHEMBL1201862, “PubChem BioAssay data set” (2004).
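Five compound concentrations were applied to cells in 96-well plates for 48 hours; endpoints were derived by simple linear interpolation of the resulting dose-response curve. GI50 is the concentration that inhibits growth by half.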 Active and inactive are the calls of the source. Cut-off read from the data, not from the text of the source: active = GI50 up to about 1.1 µM and inactive = higher.

How the values were obtained:
Assay in all cases: growth of human tumour cells (NCI), 48 h
NCI-H23 = system: NCI-H23
HCT-15 = system: HCT-15
HOP-62 = system: HOP-62
M14 = system: M14
SF-268 = system: SF-268
UACC-62 = system: UACC-62
UO-31 = system: UO-31
COLO 205 = system: COLO 205
SF-539 = system: SF-539
CCRF-CEM = system: CCRF-CEM
KM12 = system: KM12
MDA-MB-435 = system: MDA-MB-435
K562 = system: K562
SW-620 = system: SW-620
OVCAR-5 = system: OVCAR-5
SK-OV-3 = system: SK-OV-3
A549 = system: A549
PC-3 = system: PC-3
NCI-H460 = system: NCI-H460
HCT-116 = system: HCT-116
CAKI-1 = system: CAKI-1
NCI-H226 = system: NCI-H226
HCC 2998 = system: HCC 2998
Malme-3M = system: Malme-3M
MOLT-4 = system: MOLT-4
SK-MEL-2 = system: SK-MEL-2
HL-60 = system: HL-60
SNB-75 = system: SNB-75
RPMI-8226 = system: RPMI-8226
SNB-19 = system: SNB-19
IGROV-1 = system: IGROV-1
Hs-578T = system: Hs-578T
A498 = system: A498
SN12C = system: SN12C
DU-145 = system: DU-145
OVCAR-4 = system: OVCAR-4
U-251 = system: U-251
LOX IMVI = system: LOX IMVI
SF-295 = system: SF-295
NCI/ADR-RES = system: NCI/ADR-RES
HOP-92 = system: HOP-92
OVCAR-8 = system: OVCAR-8
HT-29 = system: HT-29
T47D = system: T47D
ACHN = system: ACHN
MDA-MB-231 = system: MDA-MB-231
MDA-N = system: MDA-N
NCI-H522 = system: NCI-H522
786-0 = system: 786-0
RXF 393 = system: RXF 393
UACC-257 = system: UACC-257
EKVX = system: EKVX
SK-MEL-5 = system: SK-MEL-5
OVCAR-3 = system: OVCAR-3
SR = system: SR
SK-MEL-28 = system: SK-MEL-28
TK-10 = system: TK-10
MCF7 = system: MCF7

Measured: GI50

CCCCCCCCCCCCCCCCP(=O)(O)OCC(N)C(=O)O (centres undefined)
inactive: NCI-H23 90.4 µM | HOP-62 23.4 µM | M14 50.2 µM | SF-268 27.7 µM | UACC-62 44.5 µM | UO-31 16 µM | COLO 205 46.1 µM | SF-539 26.6 µM | CCRF-CEM 33.5 µM | KM12 20.3 µM | MDA-MB-435 37.3 µM | K562 > 100 µM | SW-620 28.7 µM | OVCAR-5 21.1 µM | SK-OV-3 56.1 µM | A549 46.2 µM | PC-3 14.9 µM | NCI-H460 22.8 µM | HCT-116 19.6 µM | CAKI-1 19.1 µM | NCI-H226 25.5 µM | HCC 2998 40.5 µM | Malme-3M > 100 µM | MOLT-4 17.3 µM | SK-MEL-2 26.4 µM | HL-60 18.7 µM | SNB-75 26.9 µM | RPMI-8226 21 µM | SNB-19 16.9 µM | IGROV-1 14.1 µM | Hs-578T 54 µM | A498 23.6 µM | SN12C 41.5 µM | DU-145 > 100 µM | OVCAR-4 37.9 µM | U-251 29.8 µM | LOX IMVI 17.1 µM | SF-295 20.7 µM | NCI/ADR-RES > 100 µM | HOP-92 23.7 µM | OVCAR-8 > 100 µM | HT-29 55.3 µM | T47D > 100 µM | ACHN 22.3 µM | MDA-MB-231 32.1 µM | MDA-N 33.2 µM | NCI-H522 12.1 µM | 786-0 42 µM | RXF 393 33.7 µM | UACC-257 > 100 µM | EKVX > 100 µM | SK-MEL-5 33 µM | OVCAR-3 23.6 µM | SR 13.7 µM | SK-MEL-28 > 100 µM
31.3 µM: HCT-15

NC(=O)c1ncn(C2CCC(CP(=O)(O)O)C2)c1N (centres undefined)
> 100 µM: HCT-15
inactive: NCI-H23 > 100 µM | HOP-62 > 100 µM | M14 > 100 µM | SF-268 > 100 µM | UACC-62 > 100 µM | UO-31 > 100 µM | COLO 205 > 100 µM | SF-539 > 100 µM | KM12 > 100 µM | MDA-MB-435 > 100 µM | SW-620 > 100 µM | OVCAR-5 > 100 µM | SK-OV-3 > 100 µM | A549 > 100 µM | PC-3 > 100 µM | NCI-H460 > 100 µM | HCT-116 > 100 µM | CAKI-1 > 100 µM | NCI-H226 > 100 µM | HCC 2998 > 100 µM | Malme-3M > 100 µM | MOLT-4 > 100 µM | SK-MEL-2 > 100 µM | SNB-75 > 100 µM | RPMI-8226 > 100 µM | SNB-19 > 100 µM | IGROV-1 > 100 µM | Hs-578T > 100 µM | SN12C > 100 µM | DU-145 > 100 µM | OVCAR-4 > 100 µM | U-251 > 100 µM | LOX IMVI > 100 µM | SF-295 > 100 µM | NCI/ADR-RES > 100 µM | HOP-92 > 100 µM | OVCAR-8 > 100 µM | HT-29 > 100 µM | T47D > 100 µM | TK-10 > 100 µM | ACHN > 100 µM | MDA-MB-231 > 100 µM | MDA-N > 100 µM | 786-0 > 100 µM | RXF 393 > 100 µM | UACC-257 > 100 µM | EKVX > 100 µM | SK-MEL-5 > 100 µM | OVCAR-3 > 100 µM | MCF7 > 100 µM | SR > 100 µM | SK-MEL-28 > 100 µM
